Patent US9919053B2, “Cabazitaxel composition” (SUPRATEK PHARMA INC., priority 2012, dated 2018)
In brackets after ≈: the same amount, converted by molar mass. Where two headings read alike, the source gives them in different places.

What was measured:
[1] = Equilibrium solubility of cabazitaxel in aqueous SBECD; assay type: physicochemical; settings: aqueous SBECD solution, 23 °C, aqueous with cosolvent or surfactant or cyclodextrin, thermodynamic from solid, read-out: Cabazitaxel concentration (equilibrium solubility)
Protocol: Excess of cabazitael was mixed with aqueous SBECD solutions for 16 hours at 23° C. The resulting suspension was filtered through a 0.22 μm filter, and the clear filtrate solution was analyzed by HPLC.

[2] = Stability of solution of cabazitaxel in aqueous SBECD (HPLC concentration over time); assay type: physicochemical; settings: 23° C.
Protocol: A solution containing 2.02 mg/mL cabazitaxel in 20% aqueous SBECD was prepared by sequential dissolving SBECD in water, and cabazitaxel in the resulting solution, followed by filtration through a 0.22 μm filter. Portions of the solution was subsequently diluted with water to form three solutions having the cabazitaxel concentration listed in the Table below, respectively. The solutions were incubated at temperature 23° C. and at selected time points were analyzed using the HPLC. All solutions were stable.

CO[C@H]1C(=O)[C@]2(C)[C@@H](OC)C[C@H]3OC[C@@]3(OC(C)=O)[C@H]2[C@H](OC(=O)c2ccccc2)[C@]2(O)C[C@H](OC(=O)[C@H](O)[C@@H](NC(=O)OC(C)(C)C)c3ccccc3)C(C)=C1C2(C)C [cabazitaxel, (1S,2S,3R,4S,7R,9S,10S,12R,15S)-4-(Acetyloxy)-15-{[(2R,3S)-3-{[(tert-butoxy)carbonyl]amino}-2-hydroxy-3-phenylpropanoyl]oxy}-1-hydroxy-9,12-dimethoxy-10,14,17,17-tetramethyl-11-oxo-6-oxatetracyclo[11.3.1.^03,10.0^4,7]heptadec-13-ene-2-yl benzoate]
solubility thermodynamic at 16 h ([1]; aqueous SBECD 1%): 270 µg/mL (≈ 323 µM)
solubility thermodynamic at 16 h ([1]; aqueous SBECD 2%): 460 µg/mL (≈ 550 µM)
solubility thermodynamic at 16 h ([1]; aqueous SBECD 10%): 990 µg/mL (≈ 1180 µM)
solubility thermodynamic at 16 h ([1]; aqueous SBECD 20%): 2280 µg/mL (≈ 2730 µM)
solubility thermodynamic at 16 h ([1]; aqueous SBECD 40%): 4170 µg/mL (≈ 4990 µM)
Cabazitaxel concentration ([2]; first dilution (0.098 mg/mL at 0 h) of 2.02 mg/mL in 20% SBECD, time 0 hours): 0.098 mg/mL
Cabazitaxel concentration ([2]; first dilution (0.098 mg/mL at 0 h), time 11 hours): 0.099 mg/mL
Cabazitaxel concentration ([2]; first dilution (0.098 mg/mL at 0 h), time 24.5 hours): 0.099 mg/mL
Cabazitaxel concentration ([2]; first dilution (0.098 mg/mL at 0 h), time 36 hours): 0.098 mg/mL
Cabazitaxel concentration ([2]; first dilution (0.098 mg/mL at 0 h), time 45 hours): 0.098 mg/mL
Cabazitaxel concentration ([2]; first dilution (0.098 mg/mL at 0 h), time 100 hours): 0.097 mg/mL
Cabazitaxel concentration ([2]; first dilution (0.098 mg/mL at 0 h), time 120 hours): 0.097 mg/mL
Cabazitaxel concentration ([2]; second dilution (0.268 mg/mL at 0 h) of 2.02 mg/mL in 20% SBECD, time 0 hours): 0.268 mg/mL
Cabazitaxel concentration ([2]; second dilution (0.268 mg/mL at 0 h), time 11 hours): 0.268 mg/mL
Cabazitaxel concentration ([2]; second dilution (0.268 mg/mL at 0 h), time 24.5 hours): 0.269 mg/mL
Cabazitaxel concentration ([2]; second dilution (0.268 mg/mL at 0 h), time 36 hours): 0.268 mg/mL
Cabazitaxel concentration ([2]; second dilution (0.268 mg/mL at 0 h), time 45 hours): 0.268 mg/mL
Cabazitaxel concentration ([2]; second dilution (0.268 mg/mL at 0 h), time 100 hours): 0.263 mg/mL
Cabazitaxel concentration ([2]; second dilution (0.268 mg/mL at 0 h), time 120 hours): 0.266 mg/mL
Cabazitaxel concentration ([2]; third dilution (0.510 mg/mL at 0 h) of 2.02 mg/mL in 20% SBECD, time 0 hours): 0.510 mg/mL
Cabazitaxel concentration ([2]; third dilution (0.510 mg/mL at 0 h), time 11 hours): 0.515 mg/mL
Cabazitaxel concentration ([2]; third dilution (0.510 mg/mL at 0 h), time 24.5 hours): 0.518 mg/mL
Cabazitaxel concentration ([2]; third dilution (0.510 mg/mL at 0 h), time 36 hours): 0.512 mg/mL
Cabazitaxel concentration ([2]; third dilution (0.510 mg/mL at 0 h), time 45 hours): 0.517 mg/mL
Cabazitaxel concentration ([2]; third dilution (0.510 mg/mL at 0 h), time 100 hours): 0.512 mg/mL
Cabazitaxel concentration ([2]; third dilution (0.510 mg/mL at 0 h), time 120 hours): 0.518 mg/mL
